Columns and labels:
TOP I (Topoisomerase I) [1] = biological target: T1, TOP I (Topoisomerase I) (Homo sapiens, UniProt P11387); experiment: TOP I mediated supercoiled DNA relaxation assay; assay type: biochemical; conditions: five different concentrations; TopoGEN TG2005H, TG-2000H-1
T1 construct: purchased TopoGEN TG2005H
T1 sequence (P11387 1-765): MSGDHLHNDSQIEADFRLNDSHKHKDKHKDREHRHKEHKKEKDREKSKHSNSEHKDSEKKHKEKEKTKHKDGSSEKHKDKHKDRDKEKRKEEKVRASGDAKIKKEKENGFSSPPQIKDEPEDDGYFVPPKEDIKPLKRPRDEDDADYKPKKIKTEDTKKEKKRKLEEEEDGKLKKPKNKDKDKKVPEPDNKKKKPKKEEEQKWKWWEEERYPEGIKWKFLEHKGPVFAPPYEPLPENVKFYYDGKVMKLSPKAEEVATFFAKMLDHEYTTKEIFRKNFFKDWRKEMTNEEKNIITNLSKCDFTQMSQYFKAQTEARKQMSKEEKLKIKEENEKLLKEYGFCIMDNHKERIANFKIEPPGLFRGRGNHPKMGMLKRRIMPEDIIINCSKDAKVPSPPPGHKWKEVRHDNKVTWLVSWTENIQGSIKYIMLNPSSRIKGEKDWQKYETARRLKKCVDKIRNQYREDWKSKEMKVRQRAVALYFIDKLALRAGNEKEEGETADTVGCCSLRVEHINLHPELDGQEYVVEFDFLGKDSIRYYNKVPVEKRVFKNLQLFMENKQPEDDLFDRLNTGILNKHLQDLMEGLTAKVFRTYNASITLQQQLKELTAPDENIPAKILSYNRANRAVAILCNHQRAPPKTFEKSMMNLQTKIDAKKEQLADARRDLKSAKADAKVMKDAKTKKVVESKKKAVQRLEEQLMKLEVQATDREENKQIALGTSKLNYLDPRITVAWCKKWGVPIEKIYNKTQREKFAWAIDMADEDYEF

HCT-15 = assay type: cell-based
CCRF-CEM = assay type: cell-based
SF-295 = assay type: cell-based
[2] = biological target: T2, TOP II (Topoisomerase II) (Homo sapiens, UniProt P11388); experiment: TOP II-catalyzed relaxation of plasmid DNA assay; assay type: biochemical
T2 construct: purchased TopoGEN TG-2000H-1
Protocol: We also performed TOP II-catalyzed relaxation of plasmid DNA assays (FIG. 5-7) to evaluate if compounds could inhibit TOP II. […] The IC50 value of compounds 7, N7, N8, N14, N15, N18, and N19 were about 10, 10, 1, 10, 5, 1, and 1 μM, respectively (detect by TopoGEN TG2005H, TG-2000H-1).

OVCAR-4 = assay type: cell-based
BT-549 = assay type: cell-based
UO-31 = assay type: cell-based
SK-MEL-2 = assay type: cell-based
UACC-257 = assay type: cell-based
IGROV1 = assay type: cell-based
SF-539 = assay type: cell-based
HS 578T = assay type: cell-based
TOP I (Topoisomerase I) [3] = biological target: T1, TOP I (Topoisomerase I); experiment: TOP I mediated supercoiled DNA relaxation assay; assay type: biochemical; conditions: primary assay at 25 and/or 50 μM
Protocol: According to the cell cytotoxicity, compounds 5, 7, 8, 16, 19, N2, N7, N8, N9, N14-N19, and N25 were also selected for primary TOP I and II activities assays at 25 and/or 50 μM (FIG. 2-4).

DU-145 = assay type: cell-based
CAKI-1 = assay type: cell-based
OVCAR-5 = assay type: cell-based
HOP-92 = assay type: cell-based; conditions: Non-small cell lung cancer; 10^−5 molar; 48 hours; SRB
SN12C = assay type: cell-based
OVCAR-3 = assay type: cell-based
SNB-75 = assay type: cell-based
A549/ATCC = assay type: cell-based
HCC-2998 = assay type: cell-based
[4] = Colon cancer, 10^−5 molar, 48 hours, SRB
[5] = Homo sapiens, HCT-15, five dose
[6] = CNS cancer, 10^−5 molar, 48 hours, SRB
[7] = Homo sapiens, SF-295, five dose
[8] = Ovarian cancer, 10^−5 molar, 48 hours, SRB
[9] = Breast cancer, 10^−5 molar, 48 hours, SRB
[10] = Renal cancer, 10^−5 molar, 48 hours, SRB
[11] = Homo sapiens, SK-Mel-2, five dose
[12] = Melanoma, 10^−5 molar, 48 hours, SRB
[13] = Homo sapiens, SF-539, five dose
[14] = Homo sapiens, SNB-75, five dose
[15] = Homo sapiens, A549/ATCC, five dose
[16] = Homo sapiens, HCC-2998, five dose

T2 sequence (P11388 whole entry): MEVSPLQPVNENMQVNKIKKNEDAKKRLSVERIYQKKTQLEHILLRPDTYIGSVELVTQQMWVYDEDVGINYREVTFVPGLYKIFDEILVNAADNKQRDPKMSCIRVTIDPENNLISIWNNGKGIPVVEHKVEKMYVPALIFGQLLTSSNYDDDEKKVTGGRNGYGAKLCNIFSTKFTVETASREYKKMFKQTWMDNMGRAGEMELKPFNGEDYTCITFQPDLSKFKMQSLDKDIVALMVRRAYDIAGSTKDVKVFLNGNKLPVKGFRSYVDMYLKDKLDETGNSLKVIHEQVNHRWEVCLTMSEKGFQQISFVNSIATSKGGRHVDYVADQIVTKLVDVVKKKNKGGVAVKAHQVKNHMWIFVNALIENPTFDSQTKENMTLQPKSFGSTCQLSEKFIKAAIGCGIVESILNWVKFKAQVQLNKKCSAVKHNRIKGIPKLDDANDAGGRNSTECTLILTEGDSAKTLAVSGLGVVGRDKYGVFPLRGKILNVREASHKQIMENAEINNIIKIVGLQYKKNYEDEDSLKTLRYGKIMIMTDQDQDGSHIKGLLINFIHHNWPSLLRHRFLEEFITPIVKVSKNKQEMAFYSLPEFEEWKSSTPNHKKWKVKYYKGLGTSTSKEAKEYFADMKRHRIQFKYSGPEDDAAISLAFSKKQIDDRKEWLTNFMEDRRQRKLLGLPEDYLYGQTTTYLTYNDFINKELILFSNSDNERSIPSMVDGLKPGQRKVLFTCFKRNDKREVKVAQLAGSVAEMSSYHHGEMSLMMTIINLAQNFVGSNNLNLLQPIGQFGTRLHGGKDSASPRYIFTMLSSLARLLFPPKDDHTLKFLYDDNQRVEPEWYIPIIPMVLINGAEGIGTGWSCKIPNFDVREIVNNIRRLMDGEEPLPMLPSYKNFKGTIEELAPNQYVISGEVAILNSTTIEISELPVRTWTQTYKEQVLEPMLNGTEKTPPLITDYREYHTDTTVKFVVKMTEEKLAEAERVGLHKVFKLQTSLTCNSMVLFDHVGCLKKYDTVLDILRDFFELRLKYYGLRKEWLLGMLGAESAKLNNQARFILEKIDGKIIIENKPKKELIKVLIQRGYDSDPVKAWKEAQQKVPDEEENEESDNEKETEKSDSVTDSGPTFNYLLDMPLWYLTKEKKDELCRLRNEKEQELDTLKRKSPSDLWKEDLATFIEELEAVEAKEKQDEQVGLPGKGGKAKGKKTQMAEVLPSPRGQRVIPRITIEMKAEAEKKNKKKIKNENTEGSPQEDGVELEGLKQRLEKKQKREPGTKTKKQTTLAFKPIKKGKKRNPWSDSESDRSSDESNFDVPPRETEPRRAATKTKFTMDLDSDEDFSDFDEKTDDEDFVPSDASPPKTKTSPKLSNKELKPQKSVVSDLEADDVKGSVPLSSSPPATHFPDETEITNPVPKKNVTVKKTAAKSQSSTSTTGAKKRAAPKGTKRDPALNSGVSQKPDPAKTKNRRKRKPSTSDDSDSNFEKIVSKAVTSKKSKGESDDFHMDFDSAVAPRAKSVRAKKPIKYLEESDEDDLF

## CN(C)CCNc1nc2ccccc2c2c(=O)c3cc(Cl)ccc3sc12 [Compound N7, 10-Chloro-6-((2-(dimethylamino)ethyl)amino)-12H-thiochromeno[2,3-c]quinolin-12-one]
TOP I (Topoisomerase I) [1]
  IC50: ~10 µM
HCT-15; [4]
  Growth percent HCT-15: −30.05%
HCT-15; HCT-15, five dose
  TGI: 3.14 µM
HCT-15; [5]
  GI50: 1.59 µM
  LC50: 6.21 µM
CCRF-CEM; CCRF-CEM, five dose
  TGI: 3.41 µM
CCRF-CEM; Homo sapiens, CCRF-CEM, five dose
  GI50: 1.63 µM
CCRF-CEM; Homo sapiens, CCRF-CEM, five dose, read-out: LC50 (the source's name)
  CC50: 7.15 µM
CCRF-CEM; Leukemia, 10^−5 molar, 48 hours, SRB
  Growth percent CCRF-CEM: −53.54%
SF-295; [6]
  Growth percent SF-295: −32.59%
SF-295; [7]
  GI50: 1.73 µM
  LC50: 5.98 µM
SF-295; SF-295, five dose
  TGI: 3.21 µM
[2]; five different concentrations, TopoGEN TG2005H, TG-2000H-1, read-out: IC50 value, TOP II mediated supercoiled DNA relaxation
  IC50: ~10 µM
[2]; primary assay at 25 and/or 50 μM
  inhibitory effect in TOP II relaxation assay compared with VP-16: more potent inhibitory effects than the positive agent VP-16
OVCAR-4; Homo sapiens, OVCAR-4, five dose
  GI50: 1.19 µM
OVCAR-4; Homo sapiens, OVCAR-4, five dose, read-out: LC50 (the source's name)
  CC50: 6.35 µM
OVCAR-4; OVCAR-4, five dose
  TGI: 2.75 µM
OVCAR-4; [8]
  Growth percent OVCAR-4: 60.67%
BT-549; BT-549, five dose
  TGI: 2.27 µM
BT-549; [9]
  Growth percent BT-549: 91.29%
BT-549; Homo sapiens, BT-549, five dose
  GI50: 8.91 µM
BT-549; Homo sapiens, BT-549, five dose, read-out: LC50 (the source's name)
  CC50: 5.33 µM
UO-31; Homo sapiens, UO-31, five dose
  GI50: 1.19 µM
UO-31; Homo sapiens, UO-31, five dose, read-out: LC50 (the source's name)
  CC50: 5.22 µM
UO-31; [10]
  Growth percent UO-31: 21.83%
UO-31; UO-31, five dose
  TGI: 2.50 µM
SK-MEL-2; [11]
  GI50: 1.8 µM
  LC50: 6.12 µM
SK-MEL-2; [12]
  Growth percent SK-MEL-2: −7.83%
SK-MEL-2; SK-Mel-2, five dose
  TGI: 3.32 µM
UACC-257; Homo sapiens, UACC-257, five dose
  GI50: 1.74 µM
UACC-257; Homo sapiens, UACC-257, five dose, read-out: LC50 (the source's name)
  CC50: 5.93 µM
UACC-257; [12]
  Growth percent UACC-257: −48.22%
UACC-257; UACC-257, five dose
  TGI: 3.21 µM
IGROV1; Homo sapiens, IGROV-1, IGROV1, five dose
  GI50: 1.7 µM
IGROV1; Homo sapiens, IGROV-1, IGROV1, five dose, read-out: LC50 (the source's name)
  CC50: 6.58 µM
IGROV1; IGROV1, five dose
  TGI: 3.34 µM
IGROV1; [8]
  Growth percent IGROV1: 33.20%
SF-539; [6]
  Growth percent SF-539: 48.73%
SF-539; [13]
  GI50: 1.68 µM
  LC50: 5.67 µM
SF-539; SF-539, five dose
  TGI: 3.08 µM
HS 578T; [9]
  Growth percent HS 578T: 34.31%
HS 578T; HS 578T, five dose
  TGI: 4.02 µM
HS 578T; Homo sapiens, HS 578T, five dose
  GI50: 1.74 µM
HS 578T; Homo sapiens, HS 578T, five dose, read-out: LC50 (the source's name)
  CC50: 9.27 µM
TOP I (Topoisomerase I) [3]
  inhibitory effect in TOP I activity assay compared with CPT: more potent inhibitory effects than CPT
DU-145; DU-145, five dose
  TGI: 3.34 µM
DU-145; Homo sapiens, DU-145, five dose
  GI50: 1.87 µM
DU-145; Homo sapiens, DU-145, five dose, read-out: LC50 (the source's name)
  CC50: 5.99 µM
DU-145; Prostate cancer, 10^−5 molar, 48 hours, SRB
  Growth percent DU-145: −80.85%
CAKI-1; CAKI-1, five dose
  TGI: 2.80 µM
CAKI-1; Homo sapiens, CAKI-1, five dose
  GI50: 1.43 µM
CAKI-1; Homo sapiens, CAKI-1, five dose, read-out: LC50 (the source's name)
  CC50: 5.49 µM
CAKI-1; [10]
  Growth percent CAKI-1: 34.60%
OVCAR-5; Homo sapiens, OVCAR-5, five dose
  GI50: 1.45 µM
OVCAR-5; Homo sapiens, OVCAR-5, five dose, read-out: LC50 (the source's name)
  CC50: 5.83 µM
OVCAR-5; OVCAR-5, five dose
  TGI: 2.91 µM
OVCAR-5; [8]
  Growth percent OVCAR-5: 24.27%
HOP-92
  Growth percent HOP-92: −10.12%
SN12C; Homo sapiens, SN12C, five dose
  GI50: 1.59 µM
SN12C; Homo sapiens, SN12C, five dose, read-out: LC50 (the source's name)
  CC50: 6.12 µM
SN12C; [10]
  Growth percent SN12C: 48.67%
SN12C; SN12C, five dose
  TGI: 3.12 µM
OVCAR-3; Homo sapiens, OVCAR-3, five dose
  GI50: 1.61 µM
OVCAR-3; Homo sapiens, OVCAR-3, five dose, read-out: LC50 (the source's name)
  CC50: 5.58 µM
OVCAR-3; OVCAR-3, five dose
  TGI: 3.00 µM
OVCAR-3; [8]
  Growth percent OVCAR-3: 19.74%
SNB-75; [6]
  Growth percent SNB-75: 33.36%
SNB-75; [14]
  GI50: 1.28 µM
  LC50: 12.1 µM
SNB-75; SNB-75, five dose
  TGI: 3.69 µM
A549/ATCC; A549/ATCC, five dose
  TGI: 3.17 µM
A549/ATCC; [15]
  GI50: 1.66 µM
  LC50: 6.06 µM
A549/ATCC; Non-small cell lung cancer, 10^−5 molar, 48 hours, SRB
  Growth percent A549/ATCC: 23.38%
HCC-2998; [4]
  Growth percent HCC-2998: −83.65%
HCC-2998; HCC-2998, five dose
  TGI: 3.38 µM
HCC-2998; [16]
  GI50: 1.68 µM
  LC50: 6.82 µM
